Reference: publication PMC10967822, “Antimicrobial Indole-3-Carboxamido-Polyamine Conjugates Target Bacterial Membranes and Are Antibiotic Potentiators” (Biomolecules, 2024)
Converted amounts (≈) assume the structure as drawn. Like-named read-outs stand apart in the source and are kept apart here. Marks after values point to notes of the source that are not given here.

Experiments:
[1] = test system: S. aureus ATCC 25923; assay: MIC, broth dilution, S. aureus; assay type: cell-based, Staphylococcus aureus; settings: Staphylococcus aureus, ATCC25923; S. aureus ATCC 25923, 18 h; read-out: MIC Sa
[2] = test system: P. aeruginosa ATCC 27853; assay: MIC, broth dilution, P. aeruginosa; assay type: cell-based, Pseudomonas aeruginosa; settings: P. aeruginosa ATCC 27853, 18 h, read-out: MIC Pa
[3] = test system: human red blood cells; assay: Hemolytic assay; assay type: cell-based; settings: 10% hemolytic activity, mean n = 2
Procedure: Human whole blood was washed three times with three volumes of 0.9% NaCl and then resuspended in the same solution to a concentration of 0.5 × 10^8 cells/mL, as determined by the manual cell count in a Neubauer hemocytometer. The washed cells were then added to the 384-well compound-containing plates for a final volume of 50 μL. After a 10 min shake on a plate shaker, the plates were then incubated for 1 h at 37 °C. After incubation, the plates were centrifuged at 1000× g for 10 min to pellet cells and debris; 25 μL of the supernatant was then transferred to a polystyrene 384-well assay plate. Hemolysis was determined by measuring the supernatant absorbance at […] (OD405). The absorbance was measured using a Tecan M1000 Pro monochromator plate reader. HC10 and HC50 (concentrations at 10% and 50% hemolysis, respectively) were calculated by a curve fitting the inhibition values vs. log (concentration) using a sigmoidal dose–response function with variable fitting values for the top, bottom, and slope.

[4] = test system: P. aeruginosa ATCC 27853; assay: Doxycycline potentiation against P. aeruginosa; assay type: cell-based, Pseudomonas aeruginosa; settings: doxycycline at 2 µg/mL (4.5 µM); for Dox/Pa fold-change (intrinsic MIC / combination MIC): P. aeruginosa ATCC 27853; for Dox/Pa: concentration required to restore doxycycline activity (combination MIC): P. aeruginosa ATCC 27853, mean n = 3
From the text: (§1) These measurements were independently repeated in triplicate.

[5] = test system: E. coli ATCC 25922; assay: MIC, broth dilution, E. coli; assay type: cell-based, Escherichia coli; settings: E. coli ATCC 25922, 18 h
[6] = test system: C. albicans ATCC 90028; assay: Antifungal MIC (CO-ADD), C. albicans; assay type: cell-based; settings: Candida albicans, ATCC90028, top dose 32 µg/mL
Procedure: For the antifungal assay, fungi strains were cultured for 3 days on YPD agar at 30 °C. A yeast suspension of 1 × 10^6 to 5 × 10^6 CFU/mL was prepared from five colonies. These stock suspensions were diluted with a yeast nitrogen base (YNB) (Becton Dickinson, 233520, New South Wales, Australia) broth to a final concentration of 2.5 × 10^3 CFU/mL. […] The plates were covered and incubated at 35 °C for 36 h without shaking. C. albicans MICs were determined by measuring the absorbance at OD530. For C. neoformans, resazurin was added at a 0.006% final concentration to each well and incubated for a further 3 h before the MICs were determined by measuring the absorbance at OD570–600. […] Fluconazole was used as a positive fungal inhibitor standard for C. albicans and C. neoformans. […] The quality control (QC) of the assays was determined by the antimicrobial controls and the Z′-factor (using positive and negative controls).

[7] = test system: E. coli ATCC 25922; assay: Erythromycin potentiation against E. coli; assay type: cell-based, Escherichia coli; settings: erythromycin at 2 µg/mL (2.7 µM); for Erythro/Ec fold-change (intrinsic MIC / combination MIC): E. coli; for Erythro/Ec: concentration required to restore erythromycin activity (combination MIC): mean n = 3
From the text: as §1

[8] = Cytotoxicity assay (resazurin); assay type: cell-based; settings: human, HEK293 cells, mean n = 2
[9] = test system: K. pneumoniae ATCC 700603; assay: MIC, broth microdilution (CO-ADD), K. pneumoniae; settings: top dose 32 µg/mL
[10] = test system: MRSA ATCC 43300; assay: MIC, broth microdilution (CO-ADD), MRSA; assay type: cell-based, methicillin-resistant S. aureus; settings: Staphylococcus aureus, read-out: MIC MRSA
[11] = test system: A. baumannii ATCC 19606; assay: MIC, broth microdilution (CO-ADD), A. baumannii; assay type: cell-based, Acinetobacter baumannii
[12] = Pseudomonas aeruginosa, ATCC27853
[13] = MRSA ATCC 43300, top dose 32 µg/mL
[14] = Acinetobacter baumannii, ATCC19606, top dose 32 µg/mL

| Molecule | MIC [1] | MIC [2, 12] | Hemolysis HC10 [3] | Dox/Pa fold-change (intrinsic MIC / combination MIC) [4] | Dox/Pa: concentration required to restore doxycycline activity (combination MIC) [4] | MIC ([5]; Escherichia coli, ATCC25922) | MIC [6] | Erythro/Ec fold-change (intrinsic MIC / combination MIC) [7] | Erythro/Ec: concentration required to restore erythromycin activity (combination MIC) [7] | IC50 at 20 h [8] | MIC Kp [9] | MIC [10, 13] | MIC [11, 14] | MIC [10] | MIC [2] | MIC [5] | MIC ([11]; top dose 32 µg/mL) |
| --- | --- | --- | --- | --- | --- | --- | --- | --- | --- | --- | --- | --- | --- | --- | --- | --- | --- |
| O=C(N[C@H](CO)[C@H](O)c1ccc([N+](=O)[O-])cc1)C(Cl)Cl [Chloramphenicol, reference compound] | 1.5 to 3 µM (≈ 0.485 to 0.969 µg/mL) | – | – | – | – | – | – | – | – | – | – | – | – | – | – | – | – |
| O=C(NCCCNCCCCNCCCNC(=O)c1c[nH]c2ccccc12)c1c[nH]c2ccccc12 [Compound 12a] | 69.8 µM (≈ 34.1 µg/mL) | > 279 µM | >45 µM | > 8 fold | 34.9 µM | 139 µM (≈ 67.9 µg/mL) | > 45 µM | 4 fold | 34.9 µM | > 45 µM | >45 ^j µM | 22.3 µM (≈ 10.9 µg/mL) | > 45 µM | – | – | – | – |
| COc1ccc2[nH]cc(C(=O)NCCCNCCCCNCCCNC(=O)c3c[nH]c4ccc(OC)cc34)c2c1 [Compound 14a] | 257 µM (≈ 141 µg/mL) | > 257 µM | >41 µM | > 4 fold | 64.4 µM | 257 µM (≈ 141 µg/mL) | > 41 µM | 1 fold | 257 µM | > 41 µM | >41 µM | 10.3 µM (≈ 5.65 µg/mL) | > 41 µM | – | – | – | – |
| COc1ccc2[nH]cc(C(=O)NCCCNCCCCCCCNCCCNC(=O)c3c[nH]c4ccc(OC)cc34)c2c1.O=C(O)C(F)(F)F.O=C(O)C(F)(F)F [Compound 14c] | 122 µM | > 244 µM | >39 µM | > 4 fold | 61.1 µM | > 244 µM | > 39 µM | > 1 fold | 244 µM | > 39 µM | >39 µM | > 39 µM | > 39 µM | – | – | – | – |
| O=C(NCCCNCCCCNCCCNC(=O)c1c[nH]c2c(F)cccc12)c1c[nH]c2c(F)cccc12 [Compound 16a] | > 266 µM | 266 µM (≈ 140 µg/mL) | >43 µM | 1 fold | 266 µM | > 266 µM | > 43 µM | 1 fold | > 266 µM | > 43 µM | >43 µM | > 43 µM | > 43 µM | – | – | – | – |
| O=C(NCCCNCCCCCCNCCCNC(=O)c1c[nH]c2c(F)cccc12)c1c[nH]c2c(F)cccc12 [Compound 16b] | 256 µM (≈ 141 µg/mL) | > 256 µM | >41 µM | > 4 fold | 64.0 µM | 256 µM (≈ 141 µg/mL) | > 41 µM | 2 fold | 128 µM | > 41 µM | >41 µM | > 41 µM | > 41 µM | – | – | – | – |
| COc1cccc2c(C(=O)NCCCNCCCCNCCCNC(=O)c3c[nH]c4c(OC)cccc34)c[nH]c12 [Compound 17a] | 129 µM (≈ 70.8 µg/mL) | > 257 µM | >41 µM | > 2 fold | 129 µM | > 257 µM | > 41 µM | 1 fold | > 257 µM | > 41 µM | >41 µM | 20.6 µM (≈ 11.3 µg/mL) | > 41 µM | – | – | – | – |
| COc1cccc2c(C(=O)NCCCNCCCCCCNCCCNC(=O)c3c[nH]c4c(OC)cccc34)c[nH]c12 [Compound 17b] | 124 µM (≈ 71.5 µg/mL) | > 248 µM | >40 µM | 1 fold | > 248 µM | 248 µM (≈ 143 µg/mL) | > 40 µM | 1 fold | > 248 µM | > 40 µM | >40 µM | > 40 µM | > 40 µM | – | – | – | – |
| [H]/N=C(/N)N[C@H]1[C@H](O)[C@@H](O)[C@H](O[C@@H]2O[C@@H](C)[C@](O)(C=O)[C@H]2O[C@@H]2O[C@@H](CO)[C@H](O)[C@@H](O)[C@@H]2NC)[C@@H](N/C(N)=N\[H])[C@@H]1O [Streptomycin, reference compound] | 21.5 µM (≈ 12.5 µg/mL) | 21.5 µM (≈ 12.5 µg/mL) | – | – | – | 21.5 µM (≈ 12.5 µg/mL) | – | – | – | – | – | – | – | – | – | – | – |
| CN[C@H](CC(C)C)C(=O)N[C@H]1C(=O)N[C@@H](CC(N)=O)C(=O)N[C@H]2C(=O)N[C@H]3C(=O)N[C@H](C(=O)N[C@H](C(=O)O)c4cc(O)cc(O)c4-c4cc3ccc4O)[C@H](O)c3ccc(c(Cl)c3)Oc3cc2cc(c3O[C@@H]2O[C@H](CO)[C@@H](O)[C@H](O)[C@H]2O[C@H]2C[C@](C)(N)[C@H](O)[C@H](C)O2)Oc2ccc(cc2Cl)[C@H]1O [Vancomycin, reference compound] | – | – | – | – | – | – | – | – | – | – | – | – | – | 0.7 µM (≈ 1.01 µg/mL) | – | – | – |
| C[C@H]1c2cccc(O)c2C(=O)C2=C(O)[C@]3(O)C(=O)C(C(N)=O)=C(O)[C@@H](N(C)C)[C@@H]3[C@@H](O)[C@@H]21 [doxycycline, reference compound] | – | 90 µM (≈ 40 µg/mL) | – | – | – | – | – | – | – | – | – | – | – | – | – | – | – |
| CC[C@H]1OC(=O)[C@H](C)[C@@H](O[C@H]2C[C@@](C)(OC)[C@@H](O)[C@H](C)O2)[C@H](C)[C@@H](O[C@@H]2O[C@H](C)C[C@H](N(C)C)[C@H]2O)[C@](C)(O)C[C@@H](C)C(=O)[C@H](C)[C@@H](O)[C@]1(C)O [erythromycin, reference compound] | – | – | – | – | – | 174 µM (≈ 128 µg/mL) | – | – | – | – | – | – | – | – | – | – | – |
| CC/C(=C(\c1ccccc1)c1ccc(OCCN(C)C)cc1)c1ccccc1 [tamoxifen, reference compound] | – | – | – | – | – | – | – | – | – | 24 µM | – | – | – | – | – | – | – |
| Colistin [reference compound] | – | – | – | – | – | – | – | – | – | – | 0.2 µM | – | – | – | 1 µM | 2 µM | 0.2 µM |
